According to patent US20150087673A1, “METHODS FOR USING AND BIOMARKERS FOR AMPK-ACTIVATING COMPOUNDS” (RIGEL PHARMACEUTICALS, INC., priority 2013, published 2015):

System: AMPK
Experiment: AMPK activation assay (enzyme-linked immunosorbent assay)
Type: cell-based
In short: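 Read-out: immunodetected kinase activation after compound exposure, run with commercial kit reagents.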

Row | SMILES | EC50
1 | CS(=O)(=O)c1ccc(OC2CCN(C(=O)c3ccc(C(=O)Nc4ccc(Oc5ccc(F)cc5)nc4)nc3)CC2)cc1 [Compound 231, N-(6-(4-fluorophenoxy)pyridin-3-yl)-5-(4-(4-(methylsulfonyl)phenoxy)piperidine-1-carbonyl)picolinamide] | < 500 nM
2 | CS(=O)(=O)c1ccc(C(=O)C2CCN(C(=O)c3ccc(C(=O)Nc4ccc(Oc5ccc(F)cc5)nc4)nc3)CC2)cc1 [Compound 232, N-(6-(4-fluorophenoxy)pyridin-3-yl)-5-(4-(4-(methylsulfonyl)benzoyl)piperidine-1-carbonyl)picolinamide] | < 500 nM
3 | CS(=O)(=O)c1ccc(C(=O)C2CCN(C(=O)c3ccc(C(=O)NC4CCN(Cc5ccc(N6CCCC6)cc5)CC4)nc3)CC2)cc1 [Compound 233, 5-(4-(4-(methylsulfonyl)benzoyl)piperidine-1-carbonyl)-N-(1-(4-(pyrrolidin-1-yl)benzyl)piperidin-4-yl)picolinamide] | < 500 nM
4 | COc1ccc(CN2CCC(NC(=O)c3ccc(C(=O)N4CCC(C(=O)c5ccc(S(C)(=O)=O)cc5)CC4)cn3)CC2)cc1 [Compound 234, N-(1-(4-methoxybenzyl)piperidin-4-yl)-5-(4-(4-(methylsulfonyl)benzoyl)piperidine-1-carbonyl)picolinamide] | < 500 nM
5 | CS(=O)(=O)c1ccc(OC2CCN(C(=O)c3ccc(C(=O)Nc4ccc(Oc5ccc(F)cc5)nc4)cn3)CC2)cc1 [Compound 235, N-(6-(4-fluorophenoxy)pyridin-3-yl)-6-(4-(4-(methylsulfonyl)phenoxy)piperidine-1-carbonyl)nicotinamide] | < 500 nM
6 | CS(=O)(=O)c1ccc(OC2CCN(C(=O)c3ccc(C(=O)NC4CCN(Cc5cc(F)cc(F)c5)CC4)cn3)CC2)cc1 [Compound 236, N-(1-(3,5-difluorobenzyl)piperidin-4-yl)-6-(4-(4-(methylsulfonyl)phenoxy)piperidine-1-carbonyl)nicotinamide] | < 500 nM
7 | COc1ccc(CN2CCC(NC(=O)c3ccc(C(=O)N4CCC(Oc5ccc(S(C)(=O)=O)cc5)CC4)nc3)CC2)cc1 [Compound 237, N-(1-(4-methoxybenzyl)piperidin-4-yl)-6-(4-(4-(methylsulfonyl)phenoxy)piperidine-1-carbonyl)nicotinamide] | 1000 to 5000 nM
8 | COc1cccc(CN2CCC(NC(=O)c3ccc(C(=O)N4CCC(Oc5ccc(S(C)(=O)=O)cc5)CC4)nc3)CC2)c1 [Compound 238, N-(1-(3-methoxybenzyl)piperidin-4-yl)-6-(4-(4-(methylsulfonyl)phenoxy)piperidine-1-carbonyl)nicotinamide] | 1000 to 5000 nM
9 | CS(=O)(=O)c1ccc(OC2CCN(C(=O)c3ccc(C(=O)NC4CCN(Cc5cccc(OC(F)(F)F)c5)CC4)cn3)CC2)cc1 [Compound 239, 6-(4-(4-(methylsulfonyl)phenoxy)piperidine-1-carbonyl)-N-(1-(3-(trifluoromethoxy)benzyl)piperidin-4-yl)nicotinamide] | 1000 to 5000 nM
10 | N#Cc1ccc(CN2CCC(NC(=O)c3ccc(C(=O)N4CCC(C(=O)c5ccc(N=[N+]=[N-])cc5)CC4)nc3)CC2)cc1 [Compound 240, 6-(4-(4-azidobenzoyl)piperidine-1-carbonyl)-N-(1-(4-cyanobenzyl)piperidin-4-yl)nicotinamide] | < 500 nM
11 | COc1cccc(CN2CCC(NC(=O)c3ccc(C(=O)N4CCC(Oc5ccc(S(C)(=O)=O)cc5)CC4)cn3)CC2)c1 [Compound 241, N-(1-(3-methoxybenzyl)piperidin-4-yl)-5-(4-(4-(methylsulfonyl)phenoxy)piperidine-1-carbonyl)picolinamide] | < 500 nM
12 | CS(=O)(=O)c1ccc(OC2CCN(C(=O)c3ccc(C(=O)NC4CCN(Cc5cccc(OC(F)(F)F)c5)CC4)nc3)CC2)cc1 [Compound 242, 5-(4-(4-(methylsulfonyl)phenoxy)piperidine-1-carbonyl)-N-(1-(3-(trifluoromethoxy)benzyl)piperidin-4-yl)picolinamide] | < 500 nM
13 | CN1CCN(c2ccc(C(=O)C3CCN(C(=O)c4ccc(C(=O)NC5CCN(Cc6ccc(C#N)cc6)CC5)cn4)CC3)cc2)CC1 [Compound 243, N-(1-(4-cyanobenzyl)piperidin-4-yl)-6-(4-(4-(4-methylpiperazin-1-yl)benzoyl)piperidine-1-carbonyl)nicotinamide] | < 500 nM
14 | CN1CCN(c2ccc(C(=O)C3CCN(C(=O)c4ccc(C(=O)NC5CCN(Cc6ccc(OC(F)(F)F)cc6)CC5)cn4)CC3)cc2)CC1 [Compound 244, 6-(4-(4-(4-methylpiperazin-1-yl)benzoyl)piperidine-1-carbonyl)-N-(1-(4-(trifluoromethoxy)benzyl)piperidin-4-yl)nicotinamide] | 5000 to 10000 nM
15 | CN1CCN(c2ccc(C(=O)C3CCN(C(=O)c4ccc(C(=O)Nc5ccc(Oc6ccc(F)cc6)nc5)cn4)CC3)cc2)CC1 [Compound 245, N-(6-(4-fluorophenoxy)pyridin-3-yl)-6-(4-(4-(4-methylpiperazin-1-yl)benzoyl)piperidine-1-carbonyl)nicotinamide] | < 500 nM
16 | N#Cc1ccc(CN2CCC(NC(=O)c3ccc(C(=O)N4CCC(Oc5ccc(S(=O)(=O)C6CC6)cc5)CC4)nc3)CC2)cc1 [Compound 246, N-(1-(4-cyanobenzyl)piperidin-4-yl)-6-(4-(4-(cyclopropylsulfonyl)phenoxy)piperidine-1-carbonyl)nicotinamide] | < 500 nM

Row | SMILES | EC50
17 | O=C(Nc1ccc(Oc2ccc(F)cc2)nc1)c1ccc(C(=O)N2CCC(Oc3ccc(S(=O)(=O)C4CC4)cc3)CC2)nc1 [Compound 247, 6-(4-(4-(cyclopropylsulfonyl)phenoxy)piperidine-1-carbonyl)-N-(6-(4-fluorophenoxy)pyridin-3-yl)nicotinamide] | < 500 nM
18 | O=C(NC1CCN(Cc2ccc(N3CCCC3)cc2)CC1)c1ccc(C(=O)N2CCC(Oc3ccc(S(=O)(=O)C4CC4)cc3)CC2)nc1 [Compound 248, 6-(4-(4-(cyclopropylsulfonyl)phenoxy)piperidine-1-carbonyl)-N-(1-(4-(pyrrolidin-1-yl)benzyl)piperidin-4-yl)nicotinamide] | < 500 nM
19 | O=C(NC1CCN(Cc2ccc(OC(F)(F)F)cc2)CC1)c1ccc(C(=O)N2CCC(Oc3ccc(S(=O)(=O)C4CC4)cc3)CC2)nc1 [Compound 249, 6-(4-(4-(cyclopropylsulfonyl)phenoxy)piperidine-1-carbonyl)-N-(1-(4-(trifluoromethoxy)benzyl)piperidin-4-yl)nicotinamide] | < 500 nM
20 | CS(=O)(=O)c1ccc(N2CCN(C(=O)c3ccc(C(=O)NC4CCN(Cc5ccc(C#N)cc5)CC4)nc3)CC2)cc1 [Compound 250, N-(1-(4-cyanobenzyl)piperidin-4-yl)-5-(4-(4-(methylsulfonyl)phenyl)piperazine-1-carbonyl)picolinamide] | < 500 nM
21 | CC(C)S(=O)(=O)c1ccc(N2CCN(C(=O)c3ccc(C(=O)NC4CCN(Cc5ccc(C#N)cc5)CC4)nc3)CC2)cc1 [Compound 251, N-(1-(4-cyanobenzyl)piperidin-4-yl)-5-(4-(4-(isopropylsulfonyl)phenyl)piperazine-1-carbonyl)picolinamide] | < 500 nM
22 | N#Cc1ccc(CN2CCC(NC(=O)c3ccc(C(=O)N4CCN(c5ccc(S(=O)(=O)C6CC6)cc5)CC4)cn3)CC2)cc1 [Compound 256, N-(1-(4-cyanobenzyl)piperidin-4-yl)-5-(4-(4-(cyclopropylsulfonyl)phenyl)piperazine-1-carbonyl)picolinamide] | < 500 nM
23 | N#Cc1ccc(CN2CCC(NC(=O)c3ccc(C(=O)N4CCN(c5ccc(S(=O)(=O)C(F)(F)F)cc5)CC4)cn3)CC2)cc1 [Compound 257, N-(1-(4-cyanobenzyl)piperidin-4-yl)-5-(4-(4-(trifluoromethylsulfonyl)phenyl)piperazine-1-carbonyl)picolinamide] | < 500 nM
24 | N#Cc1ccc(CN2CCC(NC(=O)c3ccc(C(=O)N4CCN(c5ccc(C(=O)C6CC6)cc5)CC4)cn3)CC2)cc1 [Compound 258, N-(1-(4-cyanobenzyl)piperidin-4-yl)-5-(4-(4-(cyclopropanecarbonyl)phenyl)piperazine-1-carbonyl)picolinamide] | < 500 nM
25 | CC(=O)c1ccc(Oc2ccc(NC(=O)c3ccc(C(=O)N4CCC(Oc5ccc(S(C)(=O)=O)cc5)CC4)cn3)cn2)cc1 [Compound 259, N-(6-(4-acetylphenoxy)pyridin-3-yl)-5-(4-(4-(methylsulfonyl)phenoxy)piperidine-1-carbonyl)picolinamide] | < 500 nM
26 | CCS(=O)(=O)c1ccc(C(=O)C2CCN(C(=O)c3ccc(C(=O)NC4CCN(Cc5ccc(C#N)cc5)CC4)nc3)CC2)cc1 [Compound 260, N-(1-(4-cyanobenzyl)piperidin-4-yl)-5-(4-(4-(ethylsulfonyl)benzoyl)piperidine-1-carbonyl)picolinamide] | < 500 nM
27 | CS(=O)(=O)c1ccc(OC2CCN(C(=O)c3ccc(C(=O)Nc4ccc(S(=O)(=O)c5ccc(F)cc5)nc4)nc3)CC2)cc1 [Compound 261, N-(6-(4-fluorophenylsulfonyl)pyridin-3-yl)-5-(4-(4-(methylsulfonyl)phenoxy)piperidine-1-carbonyl)picolinamide] | < 500 nM
28 | N#Cc1ccc(CN2CCC(NC(=O)c3ccc(C(=O)N4CCC(S(=O)(=O)c5ccc(F)cc5)CC4)cn3)CC2)cc1 [Compound 262, N-(1-(4-cyanobenzyl)piperidin-4-yl)-5-(4-(4-fluorophenylsulfonyl)piperidine-1-carbonyl)picolinamide] | < 500 nM
29 | N#Cc1ccc(CN2CCC(NC(=O)c3ccc(C(=O)N4CCN(c5ccc(C(=O)C(F)(F)F)cc5)CC4)cn3)CC2)cc1 [Compound 263, N-(1-(4-cyanobenzyl)piperidin-4-yl)-5-(4-(4-(2,2,2-trifluoroacetyl)phenyl)piperazine-1-carbonyl)picolinamide] | < 500 nM
30 | O=C(NC1CCN(Cc2ccccc2)CC1)c1ccc(C(=O)NC2CCN(Cc3ccccc3)CC2)nc1 [Compound 264, N2,N5-bis(1-benzylpiperidin-4-yl)pyridine-2,5-dicarboxamide] | 5000 to 10000 nM
31 | N#Cc1ccc(CN2CCC(NC(=O)c3ccc(N4CCCC(Oc5ccc(C#N)cc5)C4)cn3)CC2)cc1 (stereo not shown) [Compound 265, N-(1-(4-cyanobenzyl)piperidin-4-yl)-5-(3-(4-cyanophenoxy)piperidin-1-yl)picolinamide] | 1000 to 5000 nM
